This is an account of results in patent publication US11253525B2, “Inhibitors of indoleamine 2,3-dioxygenase and methods of their use” (BRISTOL-MYERS SQUIBB COMPANY, priority 2018, dated 2022).

Test [1] concerns the target T1, human IDO1 (Homo sapiens, UniProt P14902).
T1 construct: expressed in transfected cells
In words: HEK293 cell-based indoleamine 2,3-dioxygenase (IDO) assay. The note with it: human IDO1/HEK293 cells, 20 hours. As to the method: Assessment of Inhibitor Activity in HEK293 Cell-Based Indoleamine 2,3-Dioxygenase (IDO) Assay
HEK293 cells were transfected with a pCDNA-based mammalian expression vector harboring human IDO1 cDNA (NM 002164.2) by electroporation. They were cultured in medium (DMEM with 10% FBS) containing 1 mg/ml G418 for two weeks. Clones of HEK293 cells that stably expressed human IDO1 protein were selected and expanded for IDO inhibition assay.
The human IDO1/HEK293 cells were seeded at 10,000 cells per 50 μL per well with RPMI/phenol red free media contains 10% FBS in a 384-well black wall clear bottom tissue culture plate (Matrix Technologies LLC) 100 nL of certain concentration of compound was then added to each well using ECHO liquid handling systems. The cells were incubated for 20 hours in 37° C. incubator with 5% CO2.
The compound treatments were stopped by adding trichloroacetic acid (Sigma-Aldrich) to a final concentration at 0.2%. The cell plate was further incubated at 50° C. for 30 minute. The equal volume supernatant (20 μL) and 0.2% (w/v) Ehrlich reagent (4-dimethylaminobenzaldehyde, Sigma-Aldrich) in glacial acetic acid were mixed in a new clear bottom 384-well plate. This plate was then incubated at room temperature for 30 minute. The absorbance at 490 nm was measured on Envision plate reader.
Compound IC50 values were calculated using the counts of 500 nM of a reference standard treatment as one hundred percent inhibition, and counts of no compound but DMSO treatment as zero percent inhibition.

Test [2] has as its target T2, indoleamine 2,3-dioxygenase (IDO) (Homo sapiens, UniProt P14902).
T2 construct: replaced with media containing IFNγ (#285-IF/CF, R&D Systems) at a final concentration of 25 ng/mL; endogenous in cells; host or cells: HeLa (ATCC CCL-2), IFN-gamma stimulated
Briefly: HeLa cell-based indoleamine 2,3-dioxygenase (IDO) assay, kynurenine production. As to conditions: HeLa cells, IFNγ 25 ng/mL, 48 hour incubation.

[3] abbreviates: read-out: IDO1 HEK Human IC50 class (A < 50, B < 250, C < 2000).
The mark [4] stands for this setting: read-out: IDO Hela IC50 class (A < 50, B < 250, C < 2000).

Where two headings read alike, the source gives them in different places. Bounds are passed on as bounds.

T1 sequence (P14902 whole entry): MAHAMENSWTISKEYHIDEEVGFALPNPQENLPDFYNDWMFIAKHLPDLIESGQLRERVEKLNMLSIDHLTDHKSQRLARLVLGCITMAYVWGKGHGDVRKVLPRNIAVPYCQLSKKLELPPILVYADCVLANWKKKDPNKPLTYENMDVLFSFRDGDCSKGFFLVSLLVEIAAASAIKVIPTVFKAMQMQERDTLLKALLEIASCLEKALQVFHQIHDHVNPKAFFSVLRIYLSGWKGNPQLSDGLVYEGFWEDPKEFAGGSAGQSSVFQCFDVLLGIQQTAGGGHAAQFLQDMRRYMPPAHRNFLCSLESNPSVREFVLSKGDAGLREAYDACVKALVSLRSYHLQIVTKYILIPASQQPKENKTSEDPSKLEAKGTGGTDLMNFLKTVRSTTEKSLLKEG
T2 sequence (P14902 whole entry): as above

In the case of `CCOC(C)(C)c1ccc(C(CC)CC(=O)O)cc1Nc1ccc2nc(C)sc2c1` (single isomer, unassigned) [Example 3], the IC50 in test [1] (setting [3]) is 250 to 2000 nM.

As for `CCO[C@H](c1ccc([C@H](CC)CC(=O)O)cc1Nc1ccc(Cl)cc1)C(F)(F)F` (single isomer, unassigned) [Example 11], the IC50 in test [1] (read-out: IDO1 HEK Human IC50) was 1 nM; in test [2] (setting [4]), less than 50 nM.

In the case of `CC(C)CC(CC(C)C)c1ccc(-c2ccccc2-c2nn[nH]n2)cc1NC(=O)Nc1ccc(Cl)cc1F` [Example 135, 1-(4-Chloro-2-fluorophenyl)-3-(4-(2,6-dimethylheptan-4-yl)-2′-(2H-tetrazol-5-yl)-[1,1′-biphenyl]-3-yl)urea], the IC50 in test [1] (read-out: IDO1 HEK Human IC50) and in test [2] (read-out: IDO Hela IC50) was 10 nM each time.

As to `Cc1cc(NC(=O)Nc2cc(-c3ccccc3-c3nn[nH]n3)ccc2C(CC(C)C)CC(C)C)no1` [Example 136, 1-(4-(2,6-Dimethylheptan-4-yl)-2′-(2H-tetrazol-5-yl)-[1,1′-biphenyl]-3-yl)-3-(5-methylisoxazol-3-yl)urea], the IC50 in test [1] (read-out: IDO1 HEK Human IC50) turned out to be 19 nM.

For `CCOC(C)(C)c1ccc([C@@H](CC)CC(=O)O)cc1NC(=O)Nc1ccc(C)cc1` (single isomer, unassigned) [Example 2], the concentration for half-maximal inhibition (IC50) in test [1] (read-out: IDO1 HEK Human IC50) was 224 nM; in test [1] (setting [3]), 250 to 2000 nM.

Regarding `CC[C@@H](CC(=O)O)c1ccc(C(CC(C)C)CC(C)C)c(NC(=O)Nc2ccc(C)cc2)c1` [Example 137, (S)-3-(4-(2,6-Dimethylheptan-4-yl)-3-(3-(p-tolyl)ureido)phenyl)pentanoic Acid], the IC50 was 4 nM in test [1] (read-out: IDO1 HEK Human IC50) and less than 50 nM in test [2] (setting [4]).

As to `CCO[C@@H](c1ccc([C@H](CC)CC(=O)O)cc1Nc1ccc(Cl)cc1)C(F)(F)F` (stereo in doubt) [Example 34, (R)-3-(3-((4-chlorophenyl)amino)-4-((S)-1-ethoxy-2,2,2-trifluoroethyl)phenyl)pentanoic acid], the IC50 is 1 nM in test [1] (read-out: IDO1 HEK Human IC50) and less than 50 nM in test [2] (setting [4]).

Turning to `CCO[C@@H](c1ccc(F)cc1)c1cc(Nc2ccc(Cl)cc2)cc([C@@H](CC)CC(=O)O)c1` (single isomer, unassigned) [Example 112-2], the results for the IC50 in test [1] (read-out: IDO1 HEK Human IC50) and in test [2] (read-out: IDO Hela IC50) were 7 nM and 30 nM, respectively.

As to `CCO[C@@H](c1ccc(F)cc1)c1cc(Nc2ccc3nc(C)sc3c2)cc([C@H](CC)CC(=O)O)c1` (single isomer, unassigned) [Example 114], the figures for the IC50 in test [1] (read-out: IDO1 HEK Human IC50) and in test [2] (read-out: IDO Hela IC50) were 23 nM and 20 nM, respectively.

With `CCO[C@H](c1ccc([C@@H](CC)CC(=O)O)cc1Nc1ccc(Cl)cc1)C(F)(F)F` (stereo in doubt) [Example 23, (S)-3-(3-((4-chlorophenyl)amino)-4-((R)-1-ethoxy-2,2,2-trifluoroethyl)phenyl)pentanoic acid], in test [1] (read-out: IDO1 HEK Human IC50), the IC50 came out at 1 nM.

Turning to `CCO[C@H](c1ccc(F)cc1)c1cc(Nc2ccc3nc(C)sc3c2)cc([C@H](CC)CC(=O)O)c1` (single isomer, unassigned) [Example 116], in test [1] (read-out: IDO1 HEK Human IC50), the IC50 turned out to be 108 nM.

Regarding `CCO[C@H](c1ccc(F)cc1)c1cc(Nc2ccc3nc(C)sc3c2)cc([C@@H](CC)CC(=O)O)c1` (single isomer, unassigned) [Example 117], the IC50 in test [1] (setting [3]) lay in the range of 250 to 2000 nM.

On to `CCO[C@H](c1ccc(F)cc1)c1cc(Nc2ccc(Cl)cc2)cc([C@H](CC)CC(=O)O)c1` (single isomer, unassigned) [Example 113-1], for which the IC50 in test [1] (read-out: IDO1 HEK Human IC50) and in test [2] (read-out: IDO Hela IC50) was 20 nM in each case.

For the molecule `CCO[C@@H](c1ccc(F)cc1)c1cc(Nc2ccc(Cl)cc2)cc([C@H](CC)CC(=O)O)c1` (single isomer, unassigned) [Example 112-1], the IC50 in test [1] (read-out: IDO1 HEK Human IC50) is 2 nM; in test [2] (setting [4]), less than 50 nM.

For the molecule `Cc1ccc(NC(=O)Nc2cc(OCC(=O)O)ccc2C(CC(C)C)CC(C)C)cc1` [Example 138, 2-(4-(2,6-Dimethylheptan-4-yl)-3-(3-(p-tolyl)ureido)phenoxy)acetic acid], the IC50 in test [1] (read-out: IDO1 HEK Human IC50) amounted to 464 nM.

As for `CCO[C@H](c1ccc(F)cc1)c1cc(Nc2ccc(Cl)cc2)cc([C@@H](CC)CC(=O)O)c1` (single isomer, unassigned) [Example 113-2], the IC50 in test [1] (read-out: IDO1 HEK Human IC50) was found to be 131 nM.

Consider `CCOC(C)(C)c1ccc([C@@H](CC)CC(=O)O)cc1Nc1ccc2nc(C)sc2c1` (single isomer, unassigned) [Example 4], for which the IC50 in test [1] (setting [3]) was 250 to 2000 nM.

On to `CCO[C@@H](c1ccc(F)cc1)c1cc(Nc2ccc3nc(C)sc3c2)cc([C@@H](CC)CC(=O)O)c1` (single isomer, unassigned) [Example 115], for which the IC50 in test [1] (read-out: IDO1 HEK Human IC50) is 1200 nM.

Take `CCOC(C)(C)c1ccc([C@H](CC)CC(=O)O)cc1NC(=O)Nc1ccc(C)cc1` (single isomer, unassigned) [Example 1]: in test [1] (setting [3]), the IC50 fell in the range of 250 to 2000 nM.

Regarding `CCOC(C)(C)c1ccc([C@@H](CC)CC(=O)O)cc1Nc1ccc(Cl)cc1` (single isomer, unassigned) [Example 5], the IC50 in test [1] (read-out: IDO1 HEK Human IC50) is 95 nM.

Take `CCOc1ncc(Nc2cc([C@@H](CC)CC(=O)O)ccc2C(C)(C)OCC)cn1` (single isomer, unassigned) [Example 6]: in test [1] (setting [3]), the IC50 was 250 to 2000 nM.

On to `Cc1ccc(NC(=O)Nc2cc(-c3ccccc3-c3nn[nH]n3)ccc2C(CC(C)C)CC(C)C)cc1` [Example 134, 1-(4-(2,6-dimethylheptan-4-yl)-2′-(2H-tetrazol-5-yl)-[1,1′-biphenyl]-3-yl)-3-(p-tolyl)urea], for which the IC50 in test [1] (read-out: IDO1 HEK Human IC50) is 20 nM.

For `CCO[C@@H](c1ccc([C@H](CC)CC(=O)O)cc1Nc1cnc(CC)nc1)C(F)(F)F` (single isomer, unassigned) [Example 40], the IC50 in test [2] (read-out: IDO Hela IC50) worked out at 20 nM.

Turning to `CCc1ncc(Nc2cc([C@H](CC)CC(=O)O)ccc2[C@H](CC)C2CCOCC2)cn1` (single isomer, unassigned) [Example 128], the IC50 in test [2] (read-out: IDO Hela IC50) was found to be 120 nM.

Turning to `CCO[C@@H](c1ccc([C@@H](COC)CC(=O)O)cc1Nc1ccc(Cl)cc1)C(F)(F)F` (single isomer, unassigned) [Example 79], the IC50 in test [2] (read-out: IDO Hela IC50) is 10 nM.

With `CCO[C@H](c1ccc([C@@H](CC)CC(=O)O)cc1Nc1cnc(OC)cn1)C(F)(F)F` (single isomer, unassigned) [Example 25], the IC50 in test [2] (read-out: IDO Hela IC50) is 10 nM.

As to `CCO[C@H](c1ccc([C@H](CC)CC(=O)O)cc1Nc1ccc(C#N)cc1)C(F)(F)F` (single isomer, unassigned) [Example 15], the IC50 in test [2] (setting [4]) is less than 50 nM.

With `CCO[C@H](c1ccc([C@@H](COC)CC(=O)O)cc1Nc1ncc(F)cn1)C(F)(F)F` (relative stereo) [Example 64, (S)-3-(4-((R)-1-ethoxy-2,2,2-trifluoroethyl)-3-((5-fluoropyrimidin-2-yl)amino)phenyl)-4-methoxybutanoic acid], the IC50 in test [2] (setting [4]) lay in the range of 250 to 2000 nM.

Take `CC[C@H](CC(=O)O)c1ccc([C@@H](OC)C(F)(F)F)c(Nc2cnc(C)nc2)c1` (relative stereo) [Example 90, (R)-3-(3-((2-methylpyrimidin-5-yl)amino)-4-((R)-2,2,2-trifluoro-1-methoxyethyl)phenyl)pentanoic acid]: the IC50 in test [2] (read-out: IDO Hela IC50) is 150 nM.

Consider `CCc1ncc(Nc2cc([C@H](CC)CC(=O)O)ccc2[C@@H](CC)C2CCOCC2)cn1` (single isomer, unassigned) [Example 126-1], for which the half-maximal inhibitory concentration (IC50) in test [2] (setting [4]) is less than 50 nM.
